Experiments:
[1] = tested on: Wt-BaF3; test: Parental Ba/F3 cell proliferation (CellTiter Glo); format: cell-based, murine; details: Mus musculus, parental BaF/3 cells, 48 hours
Summary of the method: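 Untransformed murine Ba/F3 cells, kept on 15% WEHI conditioned medium as IL3 source, were seeded at 5000 cells/well with compound. Viability was read by luminescence using CellTiter Glo diluted 1:4 in PBS, with no-cell background and vehicle controls.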

[2] = tested on: KU812 cells; test: Human leukemia cell proliferation (CellTiter Glo); format: cell-based; details: compared to Imatinib and Ponatinib; FIG. 1
Method: Comparison of 50% inhibition concentration (IC50) of IA-9, imatinib and Ponatinib in KU812 leukemia cells.
IA-9 is a strong kinase inhibitor among the compounds of the invention. The activity of IA-9 to inhibit human leukemia cell proliferation was tested using CellTiter Glo Assay (Promega).

[3] = tested on: Ba/F3 cells expressing FLT3-ITD oncoprotein (ITD); test: Proliferation of FLT3-ITD expressing Ba/F3 cells; format: cell-based, murine
Method: (§1) A. Dose response curve of IA-9 in treating ITD cells is presented. ITD cells in the presence (ITD+) or absence of IL-3 (ITD−) were treated with 10 μM and 3-fold dilution series of IA-9. B. Dose response curve of IA-9 in treating MV-4-11 cells is shown. […].

[4] = biological target: T1, FLT3(D835Y) (Homo sapiens, UniProt P36888, D835Y); test: KINOMEscan competition binding; details: read-out: Percent Control
T1 construct: purchased KINOMEscan (screening service)
Method: KINOMEscan™ is based on a competition binding assay that quantitatively measures the ability of a compound to compete with an immobilized, active-site directed ligand (Fabian et al. (2005) Nat. Biotechnol. 23, 329; Karaman et al. (2008) Nat. Biotechnol. 26, 127). The compound was screened at 10 μM, and results for primary screen binding interactions are reported as ‘% Ctrl’, where lower numbers indicate stronger hits. The results for kinases targets with a % Ctrl less than 30 can be seen in Table 2.

[5] = biological target: T2, BaF3-BCR/ABL-T315I (Homo sapiens, UniProt P00519, T315I, cells depend on it); test: Antiproliferative activity, kinase-dependent Ba/F3 cells (MTT/MTS); format: cell-based, murine; details: 48 hours, cell viability, read-out: BCR/ABL T315I IC50
T2 construct: fused on or other part: P11274 (Breakpoint cluster region protein)
Summary of the method: (§2)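 Murine Ba/F3 cells transformed with BCR/ABL (p210) or BCR/ABL-T315I, grown in RPMI/10% FCS without IL3, were seeded at 20,000 cells/well. Viability was read by MTT/MTS. IC50 is the concentration reducing viability to 50% of DMSO vehicle control.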

[6] = biological target: T3, BaF3-BCR/ABL (Homo sapiens, UniProt P00519); test: as above; format: cell-based, murine; details: 48 hours, cell viability, read-out: BCR/ABL IC50
T3 construct: fused on or other part: P11274 (Breakpoint cluster region protein)
Summary of the method: as §2

[7] = tested on: NCI-H1975 and HCC827 cell lines; test: Lung adenocarcinoma cell proliferation; format: cell-based; details: FIG. 4
Method: The ability of IA-9 to treat lung adenocarcinoma was tested using the NCI-H1975 and HCC827 cell lines. Both cell lines harbor at least EGFR and Ras mutations and are multi-drug resistant. Cell proliferation was tested using methods described herein.

[8] = tested on: MV-4-11; test: Proliferation of FLT3-ITD-driven human AML cells; format: cell-based; details: compared with Dasatinib; FIG. 5B
Method: as §1

[9] = biological target: T4, BaF3-TEL-LYN (Homo sapiens, UniProt P07948); test: Antiproliferative activity, kinase-dependent Ba/F3 cells (MTT/MTS); format: cell-based, murine; details: 48 hours, cell viability, read-out: tel-LYN IC50
T4 construct: fused on or other part: P41212 (Transcription factor ETV6)
Summary of the method: (§3)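 Murine Ba/F3 cells transformed with the indicated TEL- or EML4-fusion kinases, seeded at 20,000 cells/well in RPMI/10% FCS. Viability by MTT/MTS; IC50 as concentration reducing viability to 50% of DMSO vehicle control.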

[10] = biological target: T5, BaF3-TEL-INSR (Homo sapiens, UniProt P06213); test: as above; format: cell-based, murine; details: 48 hours, cell viability, read-out: Tel-INSR IC50
T5 construct: fused on or other part: P41212 (Transcription factor ETV6)
Summary of the method: as §3

[11] = biological target: T6, BaF3-TEL-TIE1 (Homo sapiens, UniProt P35590); test: as above; format: cell-based, murine; details: 48 hours, cell viability, read-out: tel-TIE1 IC50
T6 construct: fused on or other part: P41212 (Transcription factor ETV6)
Summary of the method: as §3

[12] = biological target: T7, BaF3-EML4-ALK (Homo sapiens, UniProt Q9UM73); test: as above; format: cell-based, murine; details: 48 hours, cell viability, read-out: EML4-ALK IC50
T7 construct: fused on or other part: Q9HC35 (Echinoderm microtubule-associated protein-like 4)
Summary of the method: as §3

[13] = biological target: T8, BaF3-TEL-HCK (Homo sapiens, UniProt P08631); test: as above; format: cell-based, murine; details: 48 hours, cell viability, read-out: Tel-HCK IC50
T8 construct: fused on or other part: P41212 (Transcription factor ETV6)
Summary of the method: as §3

[14] = tested on: BaF3-NRASD12; test: Oncogenic RAS dependent cell proliferation (CellTiter Glo); format: cell-based, murine; details: Mus musculus, BaF3-NRASD12 cells, 48 hours, read-out: NRas-BaF3 IC50
Summary of the method: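 BaF/3 cells transformed with NRASD12 or KRASD12, plus parental BaF/3, seeded at 5000 cells/well. Viability read by CellTiter-Glo luminescence, reagent diluted 1:4 in PBS, with vehicle and cell-free background controls.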

T6 sequence (P35590 whole entry, change not shown, the tested form may be a part): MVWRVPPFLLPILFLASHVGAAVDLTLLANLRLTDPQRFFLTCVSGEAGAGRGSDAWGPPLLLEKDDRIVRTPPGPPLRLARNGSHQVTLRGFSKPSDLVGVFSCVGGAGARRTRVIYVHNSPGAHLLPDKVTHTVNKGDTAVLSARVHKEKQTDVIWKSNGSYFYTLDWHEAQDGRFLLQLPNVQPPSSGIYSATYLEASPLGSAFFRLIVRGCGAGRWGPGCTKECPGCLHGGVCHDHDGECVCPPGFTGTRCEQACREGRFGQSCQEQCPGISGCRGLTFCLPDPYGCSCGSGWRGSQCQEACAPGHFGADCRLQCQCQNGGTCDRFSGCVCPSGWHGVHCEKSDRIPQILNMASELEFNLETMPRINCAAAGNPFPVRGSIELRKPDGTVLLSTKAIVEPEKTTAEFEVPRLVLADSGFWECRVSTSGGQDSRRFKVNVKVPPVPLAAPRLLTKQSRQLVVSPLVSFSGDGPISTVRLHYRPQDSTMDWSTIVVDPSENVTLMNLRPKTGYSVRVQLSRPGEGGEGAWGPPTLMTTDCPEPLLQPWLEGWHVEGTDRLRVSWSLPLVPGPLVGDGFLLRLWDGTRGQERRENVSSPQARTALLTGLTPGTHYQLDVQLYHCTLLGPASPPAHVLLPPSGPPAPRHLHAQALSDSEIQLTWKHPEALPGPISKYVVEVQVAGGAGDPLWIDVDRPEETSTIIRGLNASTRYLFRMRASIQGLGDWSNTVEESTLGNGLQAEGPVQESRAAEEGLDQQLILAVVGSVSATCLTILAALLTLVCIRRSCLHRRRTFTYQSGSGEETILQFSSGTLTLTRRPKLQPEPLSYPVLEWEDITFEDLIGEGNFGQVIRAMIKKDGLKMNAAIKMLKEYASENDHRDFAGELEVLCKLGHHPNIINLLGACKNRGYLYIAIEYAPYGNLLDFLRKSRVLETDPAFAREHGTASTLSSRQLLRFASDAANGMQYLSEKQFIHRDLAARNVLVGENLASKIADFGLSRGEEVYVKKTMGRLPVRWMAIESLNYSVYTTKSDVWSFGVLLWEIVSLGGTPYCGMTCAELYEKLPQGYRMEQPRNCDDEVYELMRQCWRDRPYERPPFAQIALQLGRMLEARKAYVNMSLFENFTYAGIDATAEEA
T4 sequence (P07948 whole entry, change not shown, the tested form may be a part): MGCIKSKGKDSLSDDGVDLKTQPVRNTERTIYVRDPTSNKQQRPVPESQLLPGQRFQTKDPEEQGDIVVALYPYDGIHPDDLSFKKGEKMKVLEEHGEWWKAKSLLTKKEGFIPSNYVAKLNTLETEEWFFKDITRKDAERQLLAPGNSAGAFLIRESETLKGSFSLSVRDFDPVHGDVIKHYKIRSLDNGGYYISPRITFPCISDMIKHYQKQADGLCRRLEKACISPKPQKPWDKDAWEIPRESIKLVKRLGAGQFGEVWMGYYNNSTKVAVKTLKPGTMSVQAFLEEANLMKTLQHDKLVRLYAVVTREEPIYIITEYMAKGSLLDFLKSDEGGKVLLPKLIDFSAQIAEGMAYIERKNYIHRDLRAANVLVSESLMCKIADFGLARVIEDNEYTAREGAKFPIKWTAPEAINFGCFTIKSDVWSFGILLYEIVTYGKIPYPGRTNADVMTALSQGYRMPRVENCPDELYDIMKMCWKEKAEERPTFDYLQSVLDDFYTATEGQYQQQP
T8 sequence (P08631 whole entry, change not shown, the tested form may be a part): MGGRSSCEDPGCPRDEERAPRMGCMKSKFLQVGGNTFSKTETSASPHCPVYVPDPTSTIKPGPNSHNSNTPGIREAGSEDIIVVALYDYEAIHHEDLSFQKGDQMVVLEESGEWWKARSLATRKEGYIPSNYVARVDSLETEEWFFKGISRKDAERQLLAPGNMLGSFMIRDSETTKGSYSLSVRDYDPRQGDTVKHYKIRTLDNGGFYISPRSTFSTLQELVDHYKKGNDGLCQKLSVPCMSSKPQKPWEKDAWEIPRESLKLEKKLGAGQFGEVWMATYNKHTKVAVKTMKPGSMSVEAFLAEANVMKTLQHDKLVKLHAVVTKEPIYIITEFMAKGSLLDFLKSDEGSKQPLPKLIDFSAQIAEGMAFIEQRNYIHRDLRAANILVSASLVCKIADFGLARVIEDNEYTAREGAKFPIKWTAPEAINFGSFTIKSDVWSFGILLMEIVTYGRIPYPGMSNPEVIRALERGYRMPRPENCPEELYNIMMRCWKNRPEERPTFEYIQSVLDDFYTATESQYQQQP
T7 sequence (Q9UM73 whole entry, change not shown, the tested form may be a part): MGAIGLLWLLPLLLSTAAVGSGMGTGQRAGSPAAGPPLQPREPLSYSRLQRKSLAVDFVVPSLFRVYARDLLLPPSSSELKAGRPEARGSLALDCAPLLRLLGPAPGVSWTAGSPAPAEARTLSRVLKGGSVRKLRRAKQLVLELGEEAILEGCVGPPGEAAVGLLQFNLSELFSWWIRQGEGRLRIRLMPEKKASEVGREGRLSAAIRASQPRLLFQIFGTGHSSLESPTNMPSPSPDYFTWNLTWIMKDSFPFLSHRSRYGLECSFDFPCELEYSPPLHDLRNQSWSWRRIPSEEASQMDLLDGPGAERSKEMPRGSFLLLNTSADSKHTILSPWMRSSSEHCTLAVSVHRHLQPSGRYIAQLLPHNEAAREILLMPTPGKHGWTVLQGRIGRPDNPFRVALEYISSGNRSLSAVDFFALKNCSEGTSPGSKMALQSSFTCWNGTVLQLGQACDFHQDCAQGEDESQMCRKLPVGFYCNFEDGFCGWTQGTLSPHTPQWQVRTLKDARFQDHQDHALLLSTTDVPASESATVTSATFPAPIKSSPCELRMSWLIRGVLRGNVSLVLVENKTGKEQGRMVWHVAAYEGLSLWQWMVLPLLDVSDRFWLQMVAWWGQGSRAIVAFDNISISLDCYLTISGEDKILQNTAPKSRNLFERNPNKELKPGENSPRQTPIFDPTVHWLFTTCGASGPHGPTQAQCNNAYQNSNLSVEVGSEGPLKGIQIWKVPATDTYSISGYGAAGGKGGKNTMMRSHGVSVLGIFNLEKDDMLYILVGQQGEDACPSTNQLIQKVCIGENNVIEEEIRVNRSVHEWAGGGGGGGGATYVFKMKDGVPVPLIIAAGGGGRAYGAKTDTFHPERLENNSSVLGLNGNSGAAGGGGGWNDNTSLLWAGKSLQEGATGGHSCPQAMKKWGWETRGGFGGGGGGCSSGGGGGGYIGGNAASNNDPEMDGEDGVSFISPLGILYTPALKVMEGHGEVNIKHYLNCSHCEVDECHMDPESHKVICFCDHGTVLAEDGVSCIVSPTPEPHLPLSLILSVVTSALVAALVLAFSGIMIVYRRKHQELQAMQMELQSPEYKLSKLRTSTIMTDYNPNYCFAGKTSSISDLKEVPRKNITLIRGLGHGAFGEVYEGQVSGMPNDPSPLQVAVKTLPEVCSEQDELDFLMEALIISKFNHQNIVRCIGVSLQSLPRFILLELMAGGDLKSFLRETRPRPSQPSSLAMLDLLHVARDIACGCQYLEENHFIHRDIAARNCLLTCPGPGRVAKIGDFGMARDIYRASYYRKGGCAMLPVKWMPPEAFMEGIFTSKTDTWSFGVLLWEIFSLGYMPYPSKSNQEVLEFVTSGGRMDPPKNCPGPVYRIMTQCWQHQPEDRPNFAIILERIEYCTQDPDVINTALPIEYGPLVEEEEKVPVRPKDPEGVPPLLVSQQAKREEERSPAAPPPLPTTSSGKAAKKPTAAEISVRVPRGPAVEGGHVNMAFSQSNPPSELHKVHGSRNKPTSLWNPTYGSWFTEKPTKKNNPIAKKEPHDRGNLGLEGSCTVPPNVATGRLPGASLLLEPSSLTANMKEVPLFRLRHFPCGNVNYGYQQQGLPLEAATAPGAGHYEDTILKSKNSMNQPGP

Cc1ccc(Nc2ncc3c(n2)N(C)CN(c2cc(NC(=O)c4cccc(C(F)(F)F)c4)ccc2C)C3)cn1 [IA-9, N-(4-methyl-3-(1-methyl-7-((6-methylpyridin-3-yl)amino)-1,4-dihydropyrimido[4,5-d]pyrimidin-3(2H)-yl)phenyl)-3-(trifluoromethyl)benzamide]
IC50 [1]: 5.38 µM
inhibition of proliferation of KU812 cells [2]: stronger ability to inhibit proliferation of KU812 cells
potential therapeutic window (ITD cells with vs without IL-3) ([3]; FLT3-ITD transformed cells, IL-3 rescue): 80 fold
inhibition of proliferation/viability of ITD cells ([3]; absence of IL-3, FIG. 5A): effectively inhibits the proliferation/viability of ITD cells
proliferation/survival of ITD cells on addition of IL-3 ([3]; presence of IL-3, FIG. 5A): largely rescues the proliferation/survival of the ITD cells
remaining binding at 10 µM [4]: 9%
GI50 [5]: 0.651 µM
GI50 [6]: 0.005 µM
reduction of proliferation of lung adenocarcinoma cells [7]: reduce the proliferation of lung adenocarcinoma cells
suppression of growth of MV-4-11 [8]: much more effectively than did Dasatinib
GI50 [9]: 0.225 µM
GI50 [10]: 0.869 µM
GI50 [11]: 0.519 µM
GI50 [12]: 1.47 µM
GI50 [13]: 0.639 µM
IC50 [14]: 0.38 µM
